SMILES strings stand for the structures.

Data set [1] can be described thus: DRUGMATRIX: Tumor Necrosis Factor (TNF), Non-Selective radioligand binding (ligand: [125I] TNF-alpha). As to conditions: u-937; Not Active = under 50% inhibition at 10 µM. The format is cell membranes, Membrane.
The target in data set [2] is Vasopressin V1a receptor (Homo sapiens, UniProt P37288). The format is cell membranes, Membrane. The following applies: hek293. Also: in other assays of this panel Not Active means under 50% inhibition at 10 µM.
Sequence of Vasopressin V1a receptor (P37288 whole entry): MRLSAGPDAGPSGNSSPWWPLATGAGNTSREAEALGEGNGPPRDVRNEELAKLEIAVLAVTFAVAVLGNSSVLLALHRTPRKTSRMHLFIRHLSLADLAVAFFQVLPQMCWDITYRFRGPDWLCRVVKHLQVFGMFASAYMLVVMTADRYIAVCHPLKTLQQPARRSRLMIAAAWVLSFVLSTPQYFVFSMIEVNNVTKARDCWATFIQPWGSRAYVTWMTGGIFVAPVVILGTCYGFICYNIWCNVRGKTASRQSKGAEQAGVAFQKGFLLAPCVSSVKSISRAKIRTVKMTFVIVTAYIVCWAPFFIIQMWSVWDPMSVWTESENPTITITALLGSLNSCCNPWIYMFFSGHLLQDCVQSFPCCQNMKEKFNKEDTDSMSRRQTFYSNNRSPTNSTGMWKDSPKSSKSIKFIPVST
In data set [3] the target is T1, C-X-C chemokine receptor type 1 (Homo sapiens, UniProt P25024). Also: in other assays of this panel Not Active means under 50% inhibition at 10 µM.
T1 sequence (P25024 whole entry): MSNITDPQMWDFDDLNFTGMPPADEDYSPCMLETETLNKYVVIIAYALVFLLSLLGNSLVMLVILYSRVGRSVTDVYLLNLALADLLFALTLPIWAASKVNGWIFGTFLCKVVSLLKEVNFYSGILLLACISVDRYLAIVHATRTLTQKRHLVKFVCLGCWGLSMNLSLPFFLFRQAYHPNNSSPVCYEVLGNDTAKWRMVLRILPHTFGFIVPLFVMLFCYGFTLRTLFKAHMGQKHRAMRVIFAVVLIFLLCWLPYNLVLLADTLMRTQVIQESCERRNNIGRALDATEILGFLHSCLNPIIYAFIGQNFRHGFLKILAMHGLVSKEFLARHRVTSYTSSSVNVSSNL

Data set [4] concerns the target T2, Neuropeptide Y receptor type 2 (Homo sapiens, UniProt P49146). Also: in other assays of this panel Not Active means under 50% inhibition at 10 µM.
T2 sequence (P49146 whole entry): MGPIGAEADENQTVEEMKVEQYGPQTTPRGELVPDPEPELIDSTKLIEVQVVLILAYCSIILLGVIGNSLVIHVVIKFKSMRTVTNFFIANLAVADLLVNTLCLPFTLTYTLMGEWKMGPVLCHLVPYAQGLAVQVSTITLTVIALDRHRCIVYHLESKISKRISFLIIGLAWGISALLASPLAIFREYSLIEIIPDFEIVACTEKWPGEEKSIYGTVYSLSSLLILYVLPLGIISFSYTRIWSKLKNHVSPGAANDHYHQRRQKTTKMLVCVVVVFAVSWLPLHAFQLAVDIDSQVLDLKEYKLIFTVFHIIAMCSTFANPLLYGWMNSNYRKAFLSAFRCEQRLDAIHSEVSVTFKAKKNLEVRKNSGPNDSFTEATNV
The format is cell membranes, KAN-TS, Membrane. As to conditions: kan-ts.

The target of data set [5] is Delta-type opioid receptor (Homo sapiens, UniProt P41143). The format is cell membranes, Membrane. As to conditions: hek293. Also: in other assays of this panel Not Active means under 50% inhibition at 10 µM.
Sequence of Delta-type opioid receptor (P41143 whole entry): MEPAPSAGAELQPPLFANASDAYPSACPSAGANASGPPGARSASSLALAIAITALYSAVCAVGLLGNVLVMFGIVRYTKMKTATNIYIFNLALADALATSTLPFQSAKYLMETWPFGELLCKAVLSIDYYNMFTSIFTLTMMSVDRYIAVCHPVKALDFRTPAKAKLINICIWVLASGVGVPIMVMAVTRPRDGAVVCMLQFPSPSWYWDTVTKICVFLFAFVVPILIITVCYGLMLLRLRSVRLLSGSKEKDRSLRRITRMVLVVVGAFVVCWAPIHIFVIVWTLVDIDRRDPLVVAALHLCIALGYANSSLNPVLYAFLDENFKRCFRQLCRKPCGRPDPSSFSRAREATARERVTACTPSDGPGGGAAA
Data set [6] can be described thus: DRUGMATRIX: Phorbol Ester radioligand binding (ligand: [3H] PDBu). The following applies: Not Active = under 50% inhibition at 10 µM. The format is cell membranes, Mus musculus, ICR, Brain, Membrane.
The nature of data set [7]: DRUGMATRIX: Phosphodiesterase PDE4 enzyme inhibition (substrate: [3H]cAMP + cAMP). As to conditions: u-937, Not Active = under 50% inhibition at 10 µM.
The target of data set [8] is T3, Receptor-type tyrosine-protein phosphatase C (Homo sapiens, UniProt P08575).
T3 sequence (P08575 whole entry): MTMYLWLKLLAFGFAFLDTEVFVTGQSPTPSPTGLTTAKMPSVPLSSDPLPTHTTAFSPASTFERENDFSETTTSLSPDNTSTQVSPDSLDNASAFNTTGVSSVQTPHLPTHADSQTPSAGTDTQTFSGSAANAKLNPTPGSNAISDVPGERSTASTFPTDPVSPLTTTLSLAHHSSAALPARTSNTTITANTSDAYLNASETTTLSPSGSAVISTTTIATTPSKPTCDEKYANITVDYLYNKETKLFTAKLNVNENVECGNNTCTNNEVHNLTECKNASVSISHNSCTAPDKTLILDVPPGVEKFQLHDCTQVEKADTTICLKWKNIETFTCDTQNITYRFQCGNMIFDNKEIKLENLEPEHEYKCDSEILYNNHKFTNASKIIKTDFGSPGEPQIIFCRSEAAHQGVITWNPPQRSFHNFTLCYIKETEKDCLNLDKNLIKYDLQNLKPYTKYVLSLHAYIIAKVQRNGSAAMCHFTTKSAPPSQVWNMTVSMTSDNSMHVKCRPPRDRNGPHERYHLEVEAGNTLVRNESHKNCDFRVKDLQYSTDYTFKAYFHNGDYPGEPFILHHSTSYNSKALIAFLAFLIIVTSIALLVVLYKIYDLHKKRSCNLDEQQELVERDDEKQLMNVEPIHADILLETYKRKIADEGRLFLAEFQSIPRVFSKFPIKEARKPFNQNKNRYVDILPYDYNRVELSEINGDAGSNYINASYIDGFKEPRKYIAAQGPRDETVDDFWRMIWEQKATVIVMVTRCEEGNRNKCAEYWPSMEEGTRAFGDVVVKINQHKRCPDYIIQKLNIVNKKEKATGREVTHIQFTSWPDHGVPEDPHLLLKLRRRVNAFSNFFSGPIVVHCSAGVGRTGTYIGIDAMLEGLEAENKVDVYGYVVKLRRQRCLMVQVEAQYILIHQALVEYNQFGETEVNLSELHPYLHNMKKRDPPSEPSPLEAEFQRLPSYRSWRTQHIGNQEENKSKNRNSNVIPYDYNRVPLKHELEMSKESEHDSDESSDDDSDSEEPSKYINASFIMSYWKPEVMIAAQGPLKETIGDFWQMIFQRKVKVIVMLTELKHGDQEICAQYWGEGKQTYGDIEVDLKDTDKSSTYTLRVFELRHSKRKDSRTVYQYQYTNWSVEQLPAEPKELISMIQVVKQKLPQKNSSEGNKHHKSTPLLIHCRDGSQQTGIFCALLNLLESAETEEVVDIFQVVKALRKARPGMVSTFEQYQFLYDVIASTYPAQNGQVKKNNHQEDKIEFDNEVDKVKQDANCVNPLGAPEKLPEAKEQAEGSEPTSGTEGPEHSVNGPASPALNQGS
Details: species or system Escherichia coli.

Data set [9] concerns the target Cytochrome P450 2E1 (Homo sapiens, UniProt P05181). The following applies: bti-tn-5b1-4. Also: in other assays of this panel Not Active means under 50% inhibition at 10 µM.

Sequence of Cytochrome P450 2E1 (P05181 whole entry): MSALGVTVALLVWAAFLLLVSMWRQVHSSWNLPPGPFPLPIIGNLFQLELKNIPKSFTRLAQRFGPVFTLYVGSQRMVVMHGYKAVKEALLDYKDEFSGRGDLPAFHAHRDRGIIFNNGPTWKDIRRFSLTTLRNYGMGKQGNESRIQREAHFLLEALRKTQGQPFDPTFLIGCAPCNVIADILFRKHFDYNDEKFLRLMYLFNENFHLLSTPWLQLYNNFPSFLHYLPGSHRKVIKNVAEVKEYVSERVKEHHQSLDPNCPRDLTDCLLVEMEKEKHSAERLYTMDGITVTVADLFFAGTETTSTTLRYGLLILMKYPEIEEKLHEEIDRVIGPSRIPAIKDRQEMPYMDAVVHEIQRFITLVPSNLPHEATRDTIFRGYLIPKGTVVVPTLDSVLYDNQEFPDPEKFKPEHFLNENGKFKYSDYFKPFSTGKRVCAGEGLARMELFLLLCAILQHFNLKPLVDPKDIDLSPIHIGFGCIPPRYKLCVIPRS

Broadly, the IC50 is the concentration that inhibits the measured activity by half. `CC(C)NNC(=O)c1ccncc1` [IPRONIAZID]: the IC50 result in data set [1], in data set [2], in [3], in data set [4], in data set [5] and in data set [6] was “Not Active” in each case. For the same molecule, the IC50 entry in [7], in data set [8] and in [9] was “Not Active” in each case. The Ki result in data set [1], in data set [6], in [7] and in data set [9] was “Not Active” in each case.

For the molecule `Cc1c(OCC(F)(F)F)ccnc1C[S+]([O-])c1nc2ccccc2[nH]1` (configuration not stated) [LANSOPRAZOLE], the IC50 result in [1], in data set [2], in [3], in [4], in data set [5] and in [6] was “Not Active” in each case. The IC50 result in data set [7], in data set [8] and in data set [9] was “Not Active” in each case. In addition, the Ki result in [1], in [6], in data set [7] and in data set [9] was “Not Active” in each case.

`O=c1cc(N2CCOCC2)oc2c(-c3ccccc3)cccc12` [LY-294002]: the IC50 entry in data set [1], in [2], in data set [3], in data set [4], in [5] and in [6] was “Not Active” in each case. Moreover, the values for the half-maximal inhibitory concentration (IC50) in data set [7] (read-out: IC50), in data set [8] and in data set [9] were 10.4 µM, “Not Active” and “Not Active”, respectively. Besides, the Ki result in [1], in data set [6] and in data set [9] was “Not Active” in each case.

Regarding `COc1ccc2[nH]cc(CCNC(C)=O)c2c1` [MELATONIN], the IC50 result in [1], in [2], in data set [3], in data set [4], in [5] and in [6] was “Not Active” each time. Also, the IC50 result in [7], in data set [8] and in [9] was “Not Active” in each case. Moreover, the Ki result in data set [1], in [6], in data set [7] and in data set [9] was “Not Active” each time.

Take `NC(=O)C[S+]([O-])C(c1ccccc1)c1ccccc1` (configuration not stated) [MODAFINIL]: the IC50 result in [1], in [2], in data set [3], in data set [4], in [5] and in data set [6] was “Not Active” each time. The IC50 entry in data set [7], in [8] and in data set [9] was “Not Active” in each case. Further, the Ki result in data set [1], in [6], in [7] and in data set [9] was “Not Active” throughout.

For the molecule `CCN(CC)CCOCCC1=CCC2CC1C2(C)C` (configuration not stated) [MYRTECAINE], the IC50 result in [1], in [2], in [3], in data set [4], in data set [5] and in data set [6] was “Not Active” throughout. Moreover, the IC50 entry in data set [7], in data set [8] and in data set [9] was “Not Active” in each case. Also, the Ki entry in data set [1], in [6], in data set [7] and in [9] was “Not Active” throughout.

Consider `O=C(O)c1cccnc1Nc1cccc(C(F)(F)F)c1` [NIFLUMIC ACID], for which the half-maximal inhibitory concentration (IC50) result in data set [1], in [2], in data set [3], in data set [4], in data set [5] and in [6] was “Not Active” each time. Besides, the IC50 result in [7], in data set [8] and in data set [9] was “Not Active” in each case. Further, the Ki result in data set [1], in data set [6], in data set [7] and in data set [9] was “Not Active” throughout.

Regarding `O=C(N/N=C/c1ccc([N+](=O)[O-])o1)c1cc([N+](=O)[O-])cc([N+](=O)[O-])c1O` [NIFURSOL], the IC50 entry in data set [1], in data set [2], in data set [3], in data set [4], in data set [5] and in [6] was “Not Active” in each case. Moreover, the IC50 entry in [7], in data set [8] and in [9] was “Not Active” each time. Besides, the Ki result in data set [1], in data set [6], in data set [7] and in data set [9] was “Not Active” in each case.

As to `COC(=O)Nc1nc2ccc(C(=O)c3cccs3)cc2[nH]1` [NOCODAZOLE], the IC50 entry in data set [1], in data set [2], in data set [3], in [4], in data set [5] and in [6] was “Not Active” each time. For the same molecule, the IC50 entry in [7], in data set [8] and in data set [9] was “Not Active” in each case. Further, the Ki entry in [1], in data set [6], in data set [7] and in data set [9] was “Not Active” throughout.

With `C#CC1(O)CC[C@H]2[C@@H]3CCC4=CC(=O)CC[C@@H]4[C@H]3CC[C@@]21CC` (some centres not stated) [NORGESTREL], the IC50 result in data set [1], in data set [2], in data set [3], in data set [4], in data set [5] and in data set [6] was “Not Active” throughout. In addition, the IC50 entry in data set [7], in data set [8] and in [9] was “Not Active” throughout. The Ki entry in data set [1], in data set [6], in [7] and in data set [9] was “Not Active” in each case.

As to `COC(=O)Nc1nc2ccc([S+]([O-])c3ccccc3)cc2[nH]1` (configuration not stated) [OXFENDAZOLE], the IC50 entry in data set [1], in [2], in [3], in data set [4], in [5] and in data set [6] was “Not Active” in each case. The IC50 entry in data set [7], in data set [8] and in data set [9] was “Not Active” in each case. In addition, the Ki result in data set [1], in [6], in [7] and in [9] was “Not Active” each time.
